Values quoted from earlier work in patent publication US20230168217A1, “Test strip for the detection of neutral analytes in a sample” (priority 2020, published 2023).
Values joined by “and” are separate entries in the source; they are usually repeats but may differ in a detail not shown here. Equal values may be shown once. Read-outs that look alike come from different tables or passages of the source.

Legend:
[1] = not given; remark: listed apart in the source
[2] = previously reported

Structure (SMILES)	concentrations in fatal cases of poisoning	Serum levels predicting hepatotoxicity ([1]; 4 hours postingestion)	Serum levels predicting hepatotoxicity ([1]; 24 h post-ingestion)	Protein bound fractions [2]
CN1CC[C@]23c4c5ccc(O)c4O[C@H]2[C@@H](O)C=C[C@H]3[C@H]1C5 [morphine]	approximately 1.75 µM	–	–	–
CC(=O)Nc1ccc(O)cc1 [paracetamol]	–	≥ 200 µg/ml and ≥ 1.323 mM	≥ 6.25 µg/mL and ≥ 43.1 µM	20-25%
COc1cccc(C2(O)CCCCC2CN(C)C)c1 (centres unmarked) [tramadol]	~3.8 µM	–	–	–
